Assay [1] deals with sialidase (NanH from T. forsythia). Put plainly: Sialidase assay with MUNANA substrate. The class given is biochemical, Tannerella forsythia. The following applies: 1 mM inhibitor, 2.5 nM sialidase, 0.1 mM MUNANA, pH 7.2. On the procedure:
Sialidase assays used 1 mM inhibitor (or water without inhibitor) and 2.5 nM sialidase (including NanH from T. forsythia) incubated in the presence of 0.1 mM methylumbeliferyl-N-acetylneuraminic acid, pH 7.2 in 20 mM sodium phosphate buffer. Reactions were stopped at 30 seconds and 60 seconds via addition of ph 10.5 60 mM sodium carbonate buffer. Release of fluorogenic MU was quantified by measuring fluorescence emission at 450 nm, excitation 350 nm. Percentage sialidase activity was expressed as the change in fluorescence between 30 seconds and 60 seconds compared to that of a reaction without inhibitor. Reactions were carried out in triplicate.
MU release can be used to quantify sialidase activity.
1 mM inhibitor (or water without inhibitor) and 2.5 nM sialidase (including NanH from T. forsythia) was incubated in the presence of 0.1 mM MUNANA, pH 7.2 20 mM Sodium Phosphate buffer. Reactions were stopped at 30 seconds and 60 seconds via addition of ph 10.5 60 mM sodium carbonate buffer. Release of fluorogenic MU was quantified by measuring fluorescence emission at 450 nm, excitation 350 nm. Percentage sialidase activity was expressed as the change in fluorescence between 30 seconds and 60 seconds compared to that of a reaction without inhibitor. Reactions were carried out in triplicate.

In a further assay the test system is β-D-mannosidase. The assay can be described thus: Glycosidase assay, p-nitrophenyl substrate. The following applies: Cellullomonas fimi enzyme; screened at 0.14 mg mL−1 (footnote: 0.4 mM). It counts as biochemical. As for the experimental part: (§1) Glycosidase assays were conducted as described by Watson et al. (Phytochemistry 1997, 46, 255) using p-nitrophenyl-substrates (except sialidase which used methylumbeliferyl-N-acetyineuraminic acid as substrate). Assays were carried out in microtitre plates. Enzymes were assayed in 0.1 M citric acid/0.2 M di-sodium hydrogen phosphate (McIlvaine) buffers at the optimum pH for the enzyme. All assays were carried out at 20° C. All enzymes and substrates were purchased from Sigma Aldrich Chemicals Limited. The incubation mixture consisted of 10 μl of enzyme solution, 10 μl of the iminosugars solution and 50 μl of the appropriate 5 mM p-nitrophenyl substrate made up in McIlvaine buffer at the optimum pH for the enzyme. The reactions were stopped with 0.4 M glycine (pH 10.4) during the exponential phase of the reaction. Absorbances were read at 405 nm. Water was substituted for the alkaloids in the blanks. Reactions were carried out in triplicate.
(§2) Enzyme inhibitor solutions—Compounds were dissolved in distilled water at a concentration of 1 mg mL^−1 and then screened at a concentration of 0.14 mg mL^−1 after dilution of the 1 mg mL^−1 in the assay volumes of substrates.

In another assay the target is T1, α-D-glucosidase (Saccharomyces cerevisiae, UniProt P53341).
T1 construct: purchased Sigma Aldrich Chemicals Limited
T1 sequence (P53341 whole entry): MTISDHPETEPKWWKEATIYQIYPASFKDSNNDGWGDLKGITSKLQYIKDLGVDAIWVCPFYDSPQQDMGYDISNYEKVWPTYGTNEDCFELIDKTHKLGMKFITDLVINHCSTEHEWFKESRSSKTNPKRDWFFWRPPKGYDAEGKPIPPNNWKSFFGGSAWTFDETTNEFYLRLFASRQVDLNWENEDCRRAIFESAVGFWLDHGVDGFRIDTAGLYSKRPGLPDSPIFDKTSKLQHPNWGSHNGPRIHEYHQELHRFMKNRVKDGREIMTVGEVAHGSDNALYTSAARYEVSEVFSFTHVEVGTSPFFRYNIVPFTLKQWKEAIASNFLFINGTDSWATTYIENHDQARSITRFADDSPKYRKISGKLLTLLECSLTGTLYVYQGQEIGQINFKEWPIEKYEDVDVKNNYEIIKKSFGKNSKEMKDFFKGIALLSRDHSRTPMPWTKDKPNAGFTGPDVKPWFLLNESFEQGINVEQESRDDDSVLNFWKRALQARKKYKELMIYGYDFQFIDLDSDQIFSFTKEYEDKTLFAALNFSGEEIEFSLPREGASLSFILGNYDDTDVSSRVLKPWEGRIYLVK
Put plainly: Glycosidase assay, p-nitrophenyl substrate. Particulars: Saccharomyces cerevisiae enzyme; screened at 0.14 mg mL−1 (footnote: 0.4 mM); 20° C. It counts as biochemical. On the procedure: as §1, §2

A further assay deals with male ddy mouse. The assay can be described thus: Sucrose loading test, blood glucose in mice. It counts as in vivo. Particulars: oral sucrose 2.5 g/kg, test sample 500 mg/kg body weight, mean n = 5. As for the experimental part: The animal experimental protocols in this study were approved by the Animal Experiments Committee of the University of Toyama (S-2010 UH-2). Male ddy mice (29-33 g) after an overnight fast were used for acute disaccharide loading tests. Maltose (2.5 g/kg body weight) or Sucrose (2.5 g/kg body weight) as well as the test samples were dissolved in 0.9% NaCl solution and administered to mice via a stomach tube. A control group was loaded with saline only.
Blood samples for glucose measurements were obtained from the tail vein at 0, 15, 30, 60, and 120 min after disaccharide-loading. The blood glucose levels were measured by a portable kit, Antsence II™ (Sankyo Co. Ltd. Tokyo, Japan). The Zizyphus extract HS0810/142/41 as well as the purified compounds were tested in this way.

For orientation: % inhibition means the relative decrease from the control value, in per cent. On to `OC[C@H]1N[C@H](CO)[C@@H](O)[C@@H]1O` [DMDP], for which the “% inhibition” value in assay [1] was −2%; with β-D-mannosidase, 93.34%; on α-D-glucosidase, 97.37%. Also, the blood glucose is given as 98 mg/dL in the assay on male ddy mouse (0 min after administration); 115 mg/dL in the assay on male ddy mouse (15 min after administration); 100 mg/dL with male ddy mouse (30 min after administration); 88 mg/dL in the assay with male ddy mouse (60 min after administration); 53 mg/dL in the assay on male ddy mouse (120 min after administration).

(Values after patent publication US20260078089A1, “BIOACTIVE PHYTOCHEMICALS IN ZIZYPHUS AND GUARANA” (Phytoquest Limited, priority 2018, published 2026).)
